The text below walks through data of patent US11001558B2, “Asymmetric bisaminoquinolines and bisaminoquinolines with varied linkers as autophagy inhibitors for cancer and other therapy” (THE TRUSTEES OF THE UNIVERSITY OF PENNSYLVANIA, priority 2014, dated 2021).

One experiment concerns A375P melanoma cells. The experiment can be described thus: 72 hour alamar blue viability assay. The settings on record: spermine or spermidine linker compared with Lys01. In kind it is cell-based. On the procedure:
[…]. A375 P cells seeded in a 384 well format were treated with a 10 point dilution of concentrations (0.01 nM-10 uM) (B) Colony formation assay in soft agar. Cells from the indicated melanoma (A375, WM983B, SKMEL5) and pancreatic cancer (PANC1, CAPAN1) cell lines were plated in soft agar. Medium with compound was changed every 48 hours. Crystal violet staining was used to visualize formed colonies after 2 weeks.
A375P melanoma cells were plated in a 384 well format and treated with increasing concentrations of […] derivatives. After 72 hours the cells were analyzed by alamar blue. Complete data is in Table 1, FIG. 10. (A) IC50 according to symmetry of linker (B) IC50 by linker length.
[…]. After 72 hours incubation at 37 degrees, Alamar blue was applied and viability was determined using absorbance. Absorbance was normalized to DMSO control, and a log IC50 was estimated using Graphpad Prism software.
. After 72 hours incubation at 37 degrees, Alamar blue was applied and viability was determined using absorbance. Absorbance was normalized to DMSO control, and a log IC50 was estimated using Graphpad Prism software (FIG. 11, Table 1). LN229 cells produced similar data (data not shown). The increased cytotoxicity of longer linker and asymmetric compounds was confirmed in a 2 week colony formation assay using 5 different cell lines (FIG. 1B). Analysis of the cytotoxicity findings alone elucidated some key features of potential structure activity relationships. First, substitution of the central nitrogen substitution beyond methyl reduces activity. Second, there was no clear advantage of assymetric versus symmetric linkers (FIG. 2A) with regards to cytotoxicity alone. […]
A general note: Resazurin is reduced to fluorescent resorufin, in cell work by metabolically active cells.

For experiment [1], the system named is A375 cells. The experiment can be described thus: Flow cytometry quantification of reactive oxygen species (DHR_123 fluorescence). The settings on record: 1 uM compound, 24 hours. (In flow cytometry, cells or beads pass a laser one at a time.)
In the next experiment the test system is autophagy. The settings on record: cited from earlier work.
Another experiment deals with melanoma cell lines. The experiment can be described thus: LC3B and actin immunoblotting (LC3II/actin quantification). Conditions: 1 uM, 24 hours, 3 melanoma cell lines, compared with Lys05. On the technique in general: Immunoblotting shows a protein as a band on a membrane.
Experiment [2] deals with A375P mCherry-eGFP-LC3 cells. The experiment can be described thus: Flow cytometry green/red ratio, inhibition of autophagic flux. Format: cell-based. The settings on record: for inhibition of autophagic flux (green/red ratio): 1 uM compound, 24 hours. From the text: PLX: PLX4720; TRA: trametinib.
The test system of experiment [3] is A375P mCherry eGFP-LC3 cells grown into 3 dimensional spheroids. The experiment can be described thus: 3D spheroid growth and invasion in collagen. In kind it is cell-based. The settings on record: 3 uM, 72 hours. On the procedure: A375P mCherry eGFP-LC3 cells grown into 3 dimensional spheroids and implanted in collagen. After 72 hours of treatment with 3 uM of indicated compound, cells were counterstained with DAPI. (A) fluorescence microscopy was used to visualize autophagy inhibition (bright areas), inhibition of invasion into the collagen and (B) quantification of the DAPI fluorescence indicative of cell death. *p<0.05
The 3D spheroid model has been used extensively to mimic the tumor microenvironment (Ma et al Clin Can Research 2011). Autophagy levels are more reflective of in vivo autophagy dynamics in the 3D models compared to traditional two dimensional cell culture. In this format cancer cells are grown as spheroids and then implanted in a collagen matrix. The spheroids then begin to invade and grow within this tissue microenvironment.

The subject of experiment [4] is A375 cells. Put plainly: Apoptosis by annexin V detection. The settings on record: for apoptosis (annexin V): 1 uM compound, 24 hour timepoint.
Description: (C) Apoptosis reflected by annexin V detection in A375 cells treated with 1 uM compound at the 24 hours. (D) Apoptosis reflected by annexin V detection in A375 cells treated with indicated compounds at 3 uM for 24 or 48 hours.

Description for melanoma cell lines: Each compound was administered at 1 uM concentrations for 24 hours.
As an initial method of determining the effects of the longer linker compounds on autophagic vesicle accumulation, a series of most cytotoxic dimeric CQ's were used to treat 3 different cell lines (1 uM, 24 hours). Cell lysates were collected and immunoblotting against LC3 and actin as performed (FIG. 4).

Consider `CN(CCCCNc1ccnc2cc(Cl)ccc12)CCCNc1ccnc2cc(Cl)ccc12` [Lys26], for which the “potency on replacement of the Lys01 linker with longer linkers” value (“potency on replacement” for short) with A375P melanoma cells is “significant increases in potency”. In addition, the “ROS (DHR_123 fluorescence)” value in the experiment on A375 cells [1] is on record as “highest levels of ROS”.
For the compound `CCN(CCO)CCCC(C)Nc1ccnc2cc(Cl)ccc12` (centres unmarked) [HCQ, hydroxychloroquine], the “concentrations required to inhibit autophagy” value with autophagy is reported as “High micromolar concentrations”.
On to `CN(CCCCCCNc1ccnc2cc(Cl)ccc12)CCCCCCNc1ccnc2cc(Cl)ccc12.Cl` [Lys75], for which the LC3II/actin result in the experiment with melanoma cell lines is “most consistent and substantial increase”. Moreover, the “inhibition of autophagic flux (green/red ratio)” value in experiment [2] is recorded as “most effective at inhibiting autophagic flux”. The “ROS (DHR_123 fluorescence)” value with A375 cells [1] is given as “highest levels of ROS”. The “inhibition of growth and invasion of 3D spheroids” value in experiment [3] is “most potent compound at inhibiting growth and invasion”. Further, in the experiment on A375 cells [4], the “apoptosis (annexin V)” value is “most apoptosis”.
For `Clc1ccc2c(NCCCCNCCCNc3ccnc4cc(Cl)ccc34)ccnc2c1` [Lys21], the “potency on replacement” value in the experiment on A375P melanoma cells was “significant increases in potency”. In experiment [2], the “autophagy inhibition compared to comparable symmetric compounds” value is given as “superior autophagy inhibition” and the “inhibition of autophagic flux (green/red ratio)” value is reported as “most effective at inhibiting autophagic flux”. Moreover, in the experiment on A375 cells [4], the “ability to induce apoptosis compared to comparable symmetric compounds” value is given as “superior” and the “apoptosis (annexin V)” value is reported as “most apoptosis”.
In the case of `CN(CCCCN(C)CCCNc1ccnc2cc(Cl)ccc12)CCCNc1ccnc2cc(Cl)ccc12` [Lys 25], in the experiment on A375P melanoma cells, the “potency on replacement” value is recorded as “significant increases in potency”.
